Test results from paper PMC12030706, “Novel ^177Lu-Labeled [Thz^14]Bombesin(6–14) Derivatives with Low Pancreas Accumulation for Targeting Gastrin-Releasing Peptide Receptor-Expressing Cancer” (Pharmaceuticals, 2025).

Legend:
[1] = Ex vivo biodistribution in PC-3 tumor-bearing mice; details: mouse; for tissue uptake at 120 h: 120 h post-injection; for tissue uptake at 24 h: 24 h post-injection; for tissue uptake at 4 h: 4 h post-injection; for tissue uptake at 72 h: 72 h post-injection
Procedure: SPECT/CT imaging experiments were performed using an MILabs (Houten, The Netherlands) U-SPECT-II/CT scanner with a custom-made ultra-high-sensitivity big mouse collimator (2 mm pinhole size) following previously reported procedures. […] Male NOD.Cg-Rag1^tm1Mom Il2rg^tm1Wjl/SzJ (NRG) mice were used in these experiments because of their immunodeficient characteristics and excellent radiation tolerance. Mice were anaesthetized and subcutaneously implanted with 5 × 10^6 PC-3 prostate cancer cells (100 µL; 1:1 PBS/Matrigel) behind the left shoulder. SPECT/CT imaging and biodistribution studies were performed once the tumors reached a diameter of 5–8 mm, typically after approximately 4 weeks of growth.
For ex vivo biodistribution studies, the mice were injected with ~2–6 MBq of the radioligand. […] Blocking study was conducted at 1 h post-injection via co-injection of the radioligand with 100 μg of [D-Phe^6,Leu-NHEt^13,des-Met^14]Bombesin(6–14). Organs/tissues of interested were collected, weighed, and measured using an automatic gamma counter.

[2] = tested on: PC-3 tumor-bearing NRG mouse; experiment: Longitudinal SPECT/CT imaging in PC-3 tumor-bearing mice; assay type: in vivo, mice (NRG); details: SPECT/CT images
Procedure: The PC-3 tumor-bearing mice were sedated (2.5% isoflurane in O2) and injected with ^177Lu-labeled ligands (15–32 MBq) through a lateral caudal tail vein. […] At each time point, a 5 min CT scan was obtained using 615 μA and 60 kV parameters for localization and attenuation, followed by 2 × 30 min static SPECT scans acquired in list mode with an energy window centered around 208 keV. The MILabs U-SPECT II reconstruction software (version 8.00) was used to reconstruct data, and the images were decay corrected to the time of injection with PMOD v 3.402 (PMOD Technologies GmbH, Fallanden, Switzerland).

[3] = adrenal glands, Uptake in adrenal glands
[4] = large intestine, Uptake in large intestine
[5] = small intestine, Uptake in small intestine

## CC(C)C[C@H](NC(=O)[C@H](Cc1cnc[nH]1)N(C)C(=O)CNC(=O)[C@@H](NC(=O)[C@H](C)NC(=O)[C@H](Cc1c[nH]c2ccccc12)NC(=O)[C@H](CCC(N)=O)NC(=O)[C@@H](Cc1ccccc1)NC(=O)CN1CCC(NC(=O)CN2CCN(CC(=O)O)CCN(CC(=O)O)CCN(CC(=O)O)CC2)CC1)C(C)(C)C)C(=O)N1CSC[C@H]1C(N)=O [[^177Lu]Lu-LW01110, metal not drawn]
[1]; PC-3 tumor, Uptake in PC-3 tumor
  tissue uptake at 120 h: 2.23 ± 0.33 %ID/g
[1]; adrenal glands, 100 ug, Uptake in adrenal glands, 1 h blocked (co-injected with 100 µg [D-Phe6,Leu-NHEt13,des-Met14]Bombesin(6-14))
  tissue uptake at 1 h: 0.54 ± 0.24 %ID/g
[1]; [3]
  tissue uptake at 24 h: 0.98 ± 0.18 %ID/g
  tissue uptake at 120 h: 0.25 ± 0.05 %ID/g
[1]; blood, 100 ug, Uptake in blood, 1 h blocked (co-injected with 100 µg [D-Phe6,Leu-NHEt13,des-Met14]Bombesin(6-14))
  tissue uptake at 1 h: 0.58 ± 0.16 %ID/g
[1]; blood, Uptake in blood
  tissue uptake at 4 h: 0.04 ± 0.01 %ID/g
  tissue uptake at 24 h: 0.01 %ID/g
[1]; bone, 100 ug, Uptake in bone, 1 h blocked (co-injected with 100 µg [D-Phe6,Leu-NHEt13,des-Met14]Bombesin(6-14))
  tissue uptake at 1 h: 0.08 ± 0.02 %ID/g
[1]; bone, Uptake in bone
  tissue uptake at 4 h: 0.05 ± 0.03 %ID/g
  tissue uptake at 24 h: 0.02 ± 0.01 %ID/g
  tissue uptake at 72 h: 0.02 ± 0.01 %ID/g
  tissue uptake at 120 h: 0.01 %ID/g
[1]; brain, 100 ug, Uptake in brain, 1 h blocked (co-injected with 100 µg [D-Phe6,Leu-NHEt13,des-Met14]Bombesin(6-14))
  tissue uptake at 1 h: 0.02 %ID/g
[1]; fat, 100 ug, Uptake in fat, 1 h blocked (co-injected with 100 µg [D-Phe6,Leu-NHEt13,des-Met14]Bombesin(6-14))
  tissue uptake at 1 h: 0.07 ± 0.02 %ID/g
[1]; fat, Uptake in fat, 1 h post-injection
  tissue uptake at 1 h: 0.07 ± 0.02 %ID/g
[1]; fat, Uptake in fat
  tissue uptake at 4 h: 0.01 %ID/g
  tissue uptake at 24 h: 0.01 %ID/g
[1]; heart, 100 ug, Uptake in heart, 1 h blocked (co-injected with 100 µg [D-Phe6,Leu-NHEt13,des-Met14]Bombesin(6-14))
  tissue uptake at 1 h: 0.2 ± 0.06 %ID/g
[1]; heart, Uptake in heart, 1 h post-injection
  tissue uptake at 1 h: 0.22 ± 0.01 %ID/g
[1]; heart, Uptake in heart
  tissue uptake at 72 h: 0.02 %ID/g
  tissue uptake at 120 h: 0.01 %ID/g
[1]; kidneys, 100 ug, Uptake in kidneys, 1 h blocked (co-injected with 100 µg [D-Phe6,Leu-NHEt13,des-Met14]Bombesin(6-14))
  tissue uptake at 1 h: 3.56 ± 0.77 %ID/g
[1]; kidneys, Uptake in kidneys, 1 h post-injection
  tissue uptake at 1 h: 3.77 ± 0.58 %ID/g
[1]; kidneys, Uptake in kidneys
  tissue uptake at 4 h: 2.67 ± 0.49 %ID/g
  tissue uptake at 24 h: 1.46 ± 0.42 %ID/g
  tissue uptake at 72 h: < 1 %ID/g
  tissue uptake at 120 h: 0.2 ± 0.02 %ID/g
[1]; large intestine, Uptake in large intestine, 1 h post-injection
  tissue uptake at 1 h: 1 ± 0.15 %ID/g
[1]; [4]
  tissue uptake at 4 h: 1.15 ± 0.38 %ID/g
  tissue uptake at 24 h: 0.44 ± 0.11 %ID/g
[1]; liver, 100 ug, Uptake in liver, 1 h blocked (co-injected with 100 µg [D-Phe6,Leu-NHEt13,des-Met14]Bombesin(6-14))
  tissue uptake at 1 h: 0.26 ± 0.05 %ID/g
[1]; liver, Uptake in liver
  tissue uptake at 24 h: 0.13 ± 0.04 %ID/g
  tissue uptake at 72 h: 0.07 ± 0.01 %ID/g
  tissue uptake at 120 h: 0.04 ± 0.01 %ID/g
[1]; lungs, Uptake in lungs
  tissue uptake at 24 h: 0.07 ± 0.03 %ID/g
[1]; muscle, Uptake in muscle, 1 h post-injection
  tissue uptake at 1 h: 0.15 ± 0.02 %ID/g
[1]; muscle, Uptake in muscle
  tissue uptake at 24 h: 0.01 %ID/g
  tissue uptake at 72 h: 0.01 %ID/g
[1]; pancreas, 100 ug, Uptake in pancreas, 1 h blocked (co-injected with 100 µg [D-Phe6,Leu-NHEt13,des-Met14]Bombesin(6-14))
  tissue uptake at 1 h: 2.71 ± 0.76 %ID/g
[1]; pancreas, Uptake in pancreas, 1 h post-injection
  tissue uptake at 1 h: 11.1 ± 1.37 %ID/g
[1]; pancreas, Uptake in pancreas
  tissue uptake at 4 h: 4.91 ± 0.63 %ID/g
  tissue uptake at 24 h: 3.1 ± 0.48 %ID/g
  tissue uptake at 120 h: 0.34 ± 0.04 %ID/g
[1]; small intestine, 100 ug, Uptake in small intestine, 1 h blocked (co-injected with 100 µg [D-Phe6,Leu-NHEt13,des-Met14]Bombesin(6-14))
  tissue uptake at 1 h: 0.49 ± 0.14 %ID/g
[1]; small intestine, Uptake in small intestine, 1 h post-injection
  tissue uptake at 1 h: 2.01 ± 0.13 %ID/g
[1]; [5]
  tissue uptake at 4 h: 0.56 ± 0.2 %ID/g
  tissue uptake at 24 h: 0.3 ± 0.1 %ID/g
[1]; spleen, 100 ug, Uptake in spleen, 1 h blocked (co-injected with 100 µg [D-Phe6,Leu-NHEt13,des-Met14]Bombesin(6-14))
  tissue uptake at 1 h: 0.21 ± 0.05 %ID/g
[1]; spleen, Uptake in spleen, 1 h post-injection
  tissue uptake at 1 h: 0.28 ± 0.05 %ID/g
[1]; spleen, Uptake in spleen
  tissue uptake at 4 h: 0.15 ± 0.03 %ID/g
  tissue uptake at 72 h: 0.1 ± 0.02 %ID/g
  tissue uptake at 120 h: 0.05 ± 0.01 %ID/g
[1]; stomach, 100 ug, Uptake in stomach, 1 h blocked (co-injected with 100 µg [D-Phe6,Leu-NHEt13,des-Met14]Bombesin(6-14))
  tissue uptake at 1 h: 0.17 ± 0.1 %ID/g
[1]; stomach, Uptake in stomach, 1 h post-injection
  tissue uptake at 1 h: 0.99 ± 0.21 %ID/g
[1]; stomach, Uptake in stomach
  tissue uptake at 4 h: 0.43 ± 0.16 %ID/g
  tissue uptake at 24 h: 0.17 ± 0.07 %ID/g
  tissue uptake at 72 h: 0.08 ± 0.02 %ID/g
  tissue uptake at 120 h: 0.04 ± 0.02 %ID/g
[1]; testes, 100 ug, Uptake in testes, 1 h blocked (co-injected with 100 µg [D-Phe6,Leu-NHEt13,des-Met14]Bombesin(6-14))
  tissue uptake at 1 h: 0.3 ± 0.16 %ID/g
[1]; testes, Uptake in testes
  tissue uptake at 24 h: 0.02 ± 0.01 %ID/g
  tissue uptake at 72 h: 0.02 %ID/g
  tissue uptake at 120 h: 0.01 %ID/g
[2]
  excretion pathway: excreted mainly via the renal pathway
